Laboratory results taken from PubChem BioAssay (NCI).
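Protocol summary: plate cells (96-well), add compound at 5 concentrations, incubate 48 h, interpolate endpoints linearly. TGI: concentration producing complete growth inhibition.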

Assays:
Experiment in all cases: NCI anticancer screen, dose series, 48 h
UO-31 renal = test system: UO-31 renal
OVCAR-5 ovarian = test system: OVCAR-5 ovarian
SK-MEL-28 melanoma = test system: SK-MEL-28 melanoma
HCC-2998 colon = test system: HCC-2998 colon
SF-295 CNS = test system: SF-295 CNS
HOP-62 NSCLC = test system: HOP-62 NSCLC
K-562 leukemia = test system: K-562 leukemia
SF-539 CNS = test system: SF-539 CNS
U251 CNS = test system: U251 CNS
NCI/ADR-RES ovarian = test system: NCI/ADR-RES ovarian
SF-268 CNS = test system: SF-268 CNS
NCI-H460 lung = test system: NCI-H460 lung
HS 578T breast = test system: HS 578T breast
NCI-H226 lung = test system: NCI-H226 lung
A498 renal = test system: A498 renal
SK-MEL-2 melanoma = test system: SK-MEL-2 melanoma

SMILES	TGI (UO-31 renal) [µM]	TGI (OVCAR-5 ovarian) [µM]	TGI (SK-MEL-28 melanoma) [µM]	TGI (HCC-2998 colon) [µM]	TGI (SF-295 CNS) [µM]	TGI (HOP-62 NSCLC) [µM]	TGI (K-562 leukemia) [µM]	TGI (SF-539 CNS) [µM]	TGI (U251 CNS) [µM]	TGI (NCI/ADR-RES ovarian) [µM]	TGI (SF-268 CNS) [µM]	TGI (NCI-H460 lung) [µM]	TGI (HS 578T breast) [µM]	TGI (NCI-H226 lung) [µM]	TGI (A498 renal) [µM]	TGI (SK-MEL-2 melanoma) [µM]
O=C(Nc1ccc(Cl)cc1)c1cc(S(=O)(=O)Nc2n[nH]c(Nc3ccc4ccccc4c3)n2)c(SSc2cc(Cl)c(C(=O)Nc3ccc(Cl)cc3)cc2S(=O)(=O)Nc2n[nH]c(Nc3ccc4ccccc4c3)n2)cc1Cl	65.3	50.5	46.9	43.7	58.3	80.6	47.3	60.5	58.6	> 85.4	> 100	73.7	> 100	54.4	52.1	–
C[C@]12CCC(O)CC1=CC[C@@H]1[C@@H]2CC[C@]2(C)C(O)[C@H](n3ccnc3)C[C@@H]12 (some centres not stated)	> 100	> 100	> 100	–	> 100	–	> 100	> 100	> 100	> 100	> 100	> 100	> 100	> 100	> 100	> 100
CC[C@]12C=CCN3CC[C@@]4(c5cc(Br)c(OC)c([N+](=O)[O-])c5N(C)[C@H]4[C@@](O)(C(=O)OC)[C@@H]1OC(C)=O)[C@@H]32	> 100	> 100	> 100	–	> 100	> 100	> 100	> 100	> 100	> 100	> 100	> 100	> 100	> 100	> 100	> 100
Cc1cn(C2OC(CO[Si](C)(C)C(C)(C)C)/C(=C\C#N)C2O[Si](C)(C)C(C)(C)C)c(=O)[nH]c1=O (configuration not stated)	> 100	> 100	> 100	–	83.5	> 100	> 100	97.1	> 100	> 100	> 100	> 100	> 100	> 100	> 100	37.1
O=C1CC(Br)c2c(Br)sc(Br)c21 (configuration not stated)	34.7	31.9	> 100	–	58.7	39	29.9	43.7	31.1	> 100	62.4	31.4	> 100	54.6	> 100	35.8
CC(=O)O[C@H]1C(=O)[C@@]2(C)[C@H]([C@H](OC(=O)c3ccccc3)[C@]3(O)C[C@H](OC(=O)[C@H](O)[C@@H](NC(=O)c4ccc(N)cc4)c4ccccc4)C(C)=C1C3(C)C)[C@]1(OC(C)=O)CO[C@@H]1C[C@@H]2O	> 50	> 50	> 50	0.0545	> 50	> 50	0.26	0.0309	> 50	> 50	> 50	> 50	0.0126	0.00862	> 50	–
CC(=O)OCC1OC(NC(=S)Nn2c(=O)[nH]c3ccccc3c2=O)C(OC(C)=O)C(OC(C)=O)C1OC(C)=O (configuration not stated)	> 100	> 100	> 100	> 100	> 100	> 100	–	> 100	> 100	> 100	> 100	> 100	> 100	> 100	> 100	> 100
OCC1OC(NC(=S)NCCC(F)(F)C(F)(F)C(F)(F)C(F)(F)C(F)(F)C(F)(F)F)C(O)C(O)C1O (configuration not stated)	> 100	> 100	> 100	> 100	> 100	> 100	> 100	> 100	> 100	> 100	> 100	> 100	> 100	–	56.6	> 100
COc1cc(C(=O)NNC(=O)c2cc(Br)ccc2NC(=O)c2cccs2)cc(OC)c1OC	50.2	45.3	–	–	48.9	42.2	11.9	30	44.6	62	29.3	73.6	62.1	36.5	55	44.9
O=C(O)c1cccc(Nc2c(C(=O)O)cccc2[N+](=O)[O-])c1	> 100	> 100	–	> 100	> 100	> 100	> 100	> 100	–	> 100	–	> 100	> 100	–	> 100	> 100
CCOC(=O)C1(CO)CSCCSC1	> 100	–	> 100	> 100	> 100	–	> 100	–	> 100	> 100	> 100	> 100	> 100	> 100	> 100	–
